Laboratory results: patent US10010535B2, “Desferrithiocin analogs and uses thereof” (University of Florida Research Foundation, Incorporated, priority 2013, dated 2018)
Where two headings read alike, the source gives them in different places.

What was measured:
iron excretion [1] = conditions: po 75 μmol/kg, cited from earlier work; for relative percentages of the iron excreted in the feces and urine: primates
iron excretion [2] = conditions: cited from earlier work; for relative percentages of the iron excreted in the bile and urine: rodents
iron excretion [3] = experiment: Iron-clearing efficiency in iron-overloaded primates (fecal and urine samples); assay type: in vivo, Cebus apella monkeys
Description: At least 20 half-lives, 60 days (Wood et al., “The Metabolism of Iron-Dextran Given As a Total-Dose Infusion to Iron Deficient Jamaican Subjects.” Br. J. Hamaetol. 1968, 14, 119-129), elapsed before any of the animals were used in experiments evaluating iron-chelating agents.
Briefly, the collections began 4 days prior to the administration of the test compound and continued for an additional 5 days after the compound was given. Iron concentrations were determined by flame absorption spectroscopy as presented in other publications (Bergeron et al., “A Comparative Evaluation of Iron Clearance Models.” Ann. N.Y. Acad. Sci. 1990, 612, 378-393; Bergeron et al., “Synthesis and Biological Evaluation of Naphthyldesferrithiocin Iron Chelators.” J. Med. Chem. 1996, 39, 1575-1581).
In the text below, the term “iron-clearing efficiency” (ICE) is used as a measure of the amount of iron excretion induced by a chelator. The ICE, expressed as a percent, is calculated as (compound-induced iron excretion/theoretical iron excretion)×100. To illustrate, the theoretical iron excretion after administration of one millimole of desferrioxamine B mesylate (DFO) (FIG. 3), a hexadentate chelator that forms a 1:1 complex with Fe(III), is one milli-g-atom of iron. Two millimoles of desferrithiocin (DFT) (Table 1), a tridentate iron chelator that forms a 2:1 complex with Fe(III), are required for the theoretical excretion of one milli-g-atom of iron. The theoretical iron outputs of the chelators were generated on the basis of a 2:1 compound:iron complex. The efficiencies in the rats and monkeys were calculated as set forth elsewhere (Bergeron et al., “Effects of C-4 Stereochemistry and C-4′ Hydroxylation on the Iron Clearing Efficiency and Toxicity of Desferrithiocin Analogs.” J. Med. Chem. 1999, 42, 2432-2440; Bergeron et al., “HBED: A Potential Alternative to Deferoxamine for Iron-Chelating Therapy.” Blood 1998, 91, 1446-1452).

urinary Kim-1 excretion = conditions: cited from earlier work
[4] = Octanol-water partition, shake flask (log Papp); assay type: physicochemical; conditions: pH 7.4, Tris buffer
Description: The partition values between octanol and water (at pH 7.4, Tris buffer) were determined using a “shake flask” direct method of measuring log Papp values (Sangster et al., Octanol-Water Partition Coefficients: Fundamentals and Physical Chemistry; John Wiley and Sons: West Sussex, England, 1997; Vol. 2). The fraction of compound in the octanol is then expressed as log Papp. […] This is likely due to the presence of the aromatic nitrogen, a moderately good hydrogen bond accepter, on the DFT analogs.

[5] = oral; cited from earlier work
[6] = in vivo; cited from earlier work
[7] = po once daily 28 d, once daily 384 μmol/kg/d × 10 d, twice daily 237 μmol/kg/dose × 7 d

In the case of `COCCOCCOc1ccc(C2=N[C@@](C)(C(=O)O)CS2)c(O)c1` [compound 7], the “Primate Iron-Clearing Efficiency (%)” value (iron excretion [1]; capsule) is given as 26.3 ± 9.9%, the “Primate Iron-Clearing Efficiency (%)” value (iron excretion [1]; sodium salt) is given as 28.7 ± 12.4% and the “relative percentages of the iron excreted in the feces and urine” value (iron excretion [1]; capsule) is given as 93/7. For the same compound, the “relative percentages of the iron excreted in the feces and urine” value (iron excretion [1]; sodium salt) was 83/17, the “Rodent Iron-Clearing Efficiency (%)” value (iron excretion [2]; po 300 μmol/kg, capsules, 48-h sample collection) was 26.7±4.7% and the “relative percentages of the iron excreted in the bile and urine” value (shortened to “relative percentages … in the bile and urine”) (iron excretion [2]; po 300 μmol/kg, capsules, 48 h) was 97/3. The “Performance ratio (PR), mean ICEprimates/ICErodents” value (iron excretion [3]; primates po, capsule) was 1.0, the “Performance ratio (PR), mean ICEprimates/ICErodents” value (iron excretion [3]; primates po, sodium salt) was 1.1 and the “BUN and SCr” value (urinary Kim-1 excretion; [7]) was “well within the normal range”. For the same compound, the “survival of dosing period” value (urinary Kim-1 excretion; [7]) was “All of the rats survived the dosing period”, the “urinary Kim-1 content versus baseline (day 0)” value (urinary Kim-1 excretion; [7]) was “stayed within error of this value” and the “renal toxicity (Kim-1, BUN, SCr), summary” value (urinary Kim-1 excretion; rat, in vivo) was “little to no impact on renal function”. For the same compound, the LogPapp [4] was −0.89 and the nephrotoxicity [5] was “the renal toxicity virtually disappeared”.
For `COCCOCCOCCOc1cccc(C2=N[C@@](C)(C(=O)O)CS2)c1O` [compound 5, (S)-4,5-dihydro-2-[2-hydroxy-3-(3,6,9-trioxadecyloxy)]-4-methyl-4-thiazolecarboxylic acid], the nephrotoxicity [5] is given as “the renal toxicity virtually disappeared”.
In the case of `COCCOCCOc1cccc(C2=N[C@@](C)(C(=O)O)CS2)c1O` [compound 9], the “Primate Iron-Clearing Efficiency (%)” value (iron excretion [1]) is listed as 22.5 ± 6.4%, the “relative percentages of the iron excreted in the feces and urine” value (iron excretion [1]) is listed as 86/14 and the “Rodent Iron-Clearing Efficiency (%)” value (iron excretion [2]; po 300 μmol/kg, monosodium salt, 48-h sample collection) is listed as 15.1 ± 2.0%. The “relative percentages … in the bile and urine” value (iron excretion [2]; po 300 μmol/kg, monosodium salt, 48 h) was 99/1 and the LogPapp [4] was −0.96.
For `C[C@]1(C(=O)O)CSC(c2ccccc2O)=N1` [compound 2, desazadesferrithiocin], the “Primate Iron-Clearing Efficiency (%)” value (iron excretion [1]) is listed as 21.5±12%, the “relative percentages of the iron excreted in the feces and urine” value (iron excretion [1]) is listed as 76/24 and the “Rodent Iron-Clearing Efficiency (%)” value (iron excretion [2]; po 150 μmol/kg, solubilized in 40% Cremophor RH-40/water) is listed as 2.7±0.5%. For the same compound, the “relative percentages … in the bile and urine” value (iron excretion [2]; po 150 μmol/kg, 40% Cremophor RH-40/water) was 100/0, the “Performance ratio (PR), mean ICEprimates/ICErodents” value (iron excretion [3]; primates po / rodents po) was 8.0 and the gastrointestinal toxicity [6] was “serious gastrointestinal (GI) problems”. The nephrotoxicity [6] was “not overtly nephrotoxic” and the LogPapp [4] was −0.34.
